Assay results from PMC8618917 (Pharmaceutics, 2021).
Like-named read-outs stand apart in the source and are kept apart here.

Legend:
[1] = in vitro; details: human
[2] = test system: SARS-CoV-2; test: microbe, parasite or virus in culture; format: cell-based; details: read-out: IC50, inhibition of SARS-CoV-2 infection
[3] = test system: MERS-CoV; test: microbe, parasite or virus in culture; format: cell-based; details: for IC50: read-out: IC50, inhibition of MERS-CoV infection
[4] = test system: MERS-CoV, SARS-CoV, and SARS-CoV-2; test: organism not typed; format: cell-based
[5] = test system: SARS-CoV; test: microbe, parasite or virus in culture; format: cell-based; details: read-out: IC50, inhibition of SARS-CoV infection
[6] = test system: MERS-CoV; test: microbe, parasite or virus in culture; format: cell-based; details: for IC50: read-out: IC50, MERS-CoV virus-induced cytopathic effect
[7] = Five-day repeated dose toxicity study; details: mice; for Death / Time of 100% death after administration: intraperitoneal 10 mg/kg/day
[8] = Liver microsomal metabolic stability, rat; details: 1 μM compound, liver microsomes, 30 min
[9] = Liver microsomal metabolic stability, human; details: 1 μM compound, liver microsomes, 30 min
[10] = Plasma protein binding, rat (rapid equilibrium dialysis)
[11] = test system: CYP450 isozymes; test: CYP450 inhibition, text summary over isozymes
[12] = Plasma protein binding, mice (rapid equilibrium dialysis); details: mouse
[13] = Liver microsomal stability, text summary over mouse, rat and human; details: rat, human, liver microsomes
[14] = Rat pharmacokinetic study
[15] = Liver microsomal metabolic stability, mice; details: 1 μM compound, liver microsomes, 30 min
[16] = Plasma protein binding, text summary over mouse and rat; details: in mouse and rat
[17] = Severe acute respiratory syndrome coronavirus 2, Vero
[18] = Middle East respiratory syndrome-related coronavirus, Vero, 24 h
[19] = read-out: IC50, anti-coronavirus activity (range over both compounds and the viruses)
[20] = Severe acute respiratory syndrome coronavirus, Vero
[21] = Middle East respiratory syndrome-related coronavirus, Calu-3, 72 h
[22] = intraperitoneal 2 mg/kg/day, data not shown
[23] = intraperitoneal 10 mg/kg/day for 5 days
[24] = male, Sprague-Dawley, plasma, iv, 1 mg/kg
[25] = male, Sprague-Dawley, plasma, po, 2 mg/kg

What does the source list for `C[C@]12CC[C@H](O)C[C@H]1CC[C@@H]1[C@@H]2CC[C@]2(C)[C@@H](c3ccc(=O)oc3)C[C@H]3O[C@]132` [resibufogenin]?
CC50 [1]: > 50 µM; IC50 [2, 17]: 1.61 ± 0.063 µM; IC50 [3, 18]: 1.61 µM; IC50 [4, 19]: 0.231 to 1.61 µM; IC50 [5, 20]: 1.36 ± 0.059 µM; Selectivity index (SI) [6]: > 3.1; IC50 [6, 21]: 16 µM

With `C[C@H]1O[C@@H](O[C@H]2[C@@H](O)C[C@H](O[C@H]3[C@@H](O)C[C@H](O[C@H]4CC[C@@]5(C)[C@H](CC[C@@H]6[C@@H]5CC[C@]5(C)[C@@H](C7=CC(=O)OC7)CC[C@]65O)C4)O[C@@H]3C)O[C@@H]2C)C[C@H](O)[C@@H]1O` [digitoxin, Digitoxin] as the compound, how does the CC50 [1] read?
Its CC50 is greater than 50 µM.

And the IC50 [2, 17]?
Its IC50 is 0.0599 µM.

What about the IC50 [2] of the same compound?
The IC50 was 0.059 ± 0.001 µM.

What about the “Selectivity index (SI, CC50/IC50)” value [3] of the same compound?
The value was greater than 147.9.

What about the IC50 [3, 18] of the same compound?
The IC50 was 0.067 µM.

What about the Survival [7, 22] of the same compound?
The Survival was 100%.

What about the Death [7] of the same compound?
The Death was 100%.

And the “Time of 100% death after administration” value [7]?
Its value is 4 days.

And the IC50 [5, 20]?
The IC50 was 0.0621 µM.

What about the IC50 [5] of the same compound?
Its IC50 is 0.062 ± 0.001 µM.

What about the “Selectivity index (SI)” value [6] of the same compound?
The value was greater than 33.4.

What about the IC50 [6, 21] of the same compound?
The IC50 was 1.5 µM.

With `C[C@]12CC[C@H](O)C[C@H]1CC[C@@H]1[C@@H]2CC[C@]2(C)[C@@H](c3ccc(=O)oc3)CC[C@]12O` [bufalin] as the compound, how does the CC50 [1] read?
Its CC50 is greater than 50 µM.

And the IC50 [2, 17]?
The IC50 was 0.019 µM.

What about the IC50 [3, 18] of the same compound?
Its IC50 is 0.018 µM.

What about the IC50 ([4]; read-out: IC50, anti-SARS-CoV and SARS-CoV-2 activity (range over both viruses)) of the same compound?
Its IC50 is 0.016 to 0.019 µM.

And the Survival [7, 22]?
Its Survival is 100%.

What about the Death [7] of the same compound?
Its Death is 100%.

And the “Time of 100% death after administration” value [7]?
The value was 1 days.

And the IC50 [5, 20]?
The IC50 was 0.016 µM.

What about the “Selectivity index (SI)” value [6] of the same compound?
Its value is greater than 91.9.

And the IC50 [6, 21]?
The IC50 was 0.544 µM.

What about the IC50 [6] of the same compound?
The IC50 was 0.544 µM.

Which results are given for `CC(=O)O[C@H]1C[C@]2(O)[C@@H]3CC[C@@H]4C[C@@H](O)CC[C@]4(C)[C@H]3CC[C@]2(C)[C@H]1c1ccc(=O)oc1` [bufotalin]?
CC50 [1]: > 50 µM; IC50 [2, 17]: 0.0729 µM; IC50 [2]: 0.072 ± 0.001 µM; IC50 [3, 18]: 0.063 µM; Survival [7, 23]: 100%; IC50 [5, 20]: 0.027 µM; Selectivity index (SI) [6]: > 30.7; IC50 [6, 21]: 1.63 µM

For `C[C@]12CC[C@H](O)C[C@@]1(O)CC[C@@H]1[C@@H]2CC[C@]2(C)[C@@H](c3ccc(=O)oc3)CC[C@]12O` [telocinobufagin], which “MS (% of Remaining), Rat” value [8] is on record?
The value was 31.9%.

And the CC50 [1]?
The CC50 was greater than 50 µM.

What about the “MS (% of Remaining), Human” value [9] of the same compound?
Its value is 15.1%.

What about the fraction unbound at 4 h, 5 μM [10] of the same compound?
The fraction unbound at 4 h, 5 μM was 0.032.

And the inhibition at 10 µM [11]?
Its inhibition at 10 µM is 1.4 to 21%.

What about the IC50 [2, 17] of the same compound?
The IC50 was 0.142 µM.

And the IC50 [2]?
Its IC50 is 0.142 ± 0.002 µM.

And the IC50 [3, 18]?
Its IC50 is 0.027 µM.

What about the fraction unbound at 4 h, 5 μM [12] of the same compound?
Its fraction unbound at 4 h, 5 μM is 0.022.

What about the Survival [7, 23] of the same compound?
The Survival was 100%.

What about the remaining at 0.5 h, 1 μM [13] of the same compound?
The remaining at 0.5 h, 1 μM was 15 to 30%.

And the IC50 [5, 20]?
The IC50 was 0.0712 µM.

And the IC50 [5]?
The IC50 was 0.071 ± 0.002 µM.

And the IC50 [6, 21]?
Its IC50 is 0.465 µM.

And the IC50 [6]?
Its IC50 is 0.465 µM.

What about the “Ft (oral bioavailability)” value ([14]; P.O., 2 mg/kg) of the same compound?
The value was 33.2%.

What about the AUC [14, 24] of the same compound?
The AUC was 604 ± 159 ng·h/mL.

What about the Vd [14, 24] of the same compound?
Its Vd is 0.275 ± 0.169 L/kg.

And the clearance [14, 24]?
The clearance was 28.8 mL/min/kg.

And the half-life [14, 24]?
Its half-life is 13.5 ± 1.2 min.

And the AUC [14, 25]?
Its AUC is 488 ± 204 ng·h/mL.

And the Cmax [14, 25]?
Its Cmax is 537 ± 227 ng/mL.

And the Tmax [14, 25]?
Its Tmax is 20 ± 8.64 min.

And the half-life [14, 25]?
Its half-life is 30.6 ± 24.4 min.

And the bioavailability ([14]; male, Sprague-Dawley, plasma, po, 2 mg/kg, Ft (oral bioavailability), P.O.)?
Its bioavailability is 33%.

What about the “MS (% of Remaining), Mice” value [15] of the same compound?
Its value is 21.7%.

What about the PPB rate [16] of the same compound?
Its PPB rate is 96–97%.

Which CC50 [1] does the source give for `CC(=O)O[C@H]1[C@H]2O[C@]23[C@@H]2CC[C@]4(O)C[C@@H](O)CC[C@]4(C)[C@H]2CC[C@]3(C)[C@H]1c1ccc(=O)oc1` [cinobufotalin] here?
The CC50 was greater than 50 µM.

What about the IC50 [2, 17] of the same compound?
Its IC50 is 0.399 µM.

And the IC50 [2]?
The IC50 was 0.399 ± 0.008 µM.

What about the IC50 [3, 18] of the same compound?
Its IC50 is 0.23 µM.

And the IC50 [3]?
The IC50 was 0.231 ± 0.014 µM.

And the IC50 [4, 19]?
The IC50 was 0.231 to 1.61 µM.

And the Survival [7, 23]?
Its Survival is 100%.

And the IC50 [5, 20]?
The IC50 was 0.429 µM.

And the IC50 [5]?
Its IC50 is 0.429 ± 0.017 µM.

What about the “Selectivity index (SI)” value [6] of the same compound?
Its value is greater than 12.6.

And the IC50 [6, 21]?
Its IC50 is 3.96 µM.

Which results are given for `CC(=O)O[C@H]1[C@H]2O[C@]23[C@@H]2CC[C@@H]4C[C@@H](O)CC[C@]4(C)[C@H]2CC[C@]3(C)[C@H]1c1ccc(=O)oc1` [cinobufagin]?
MS (% of Remaining), Rat [8]: 4.40%; CC50 [1]: > 50 µM; MS (% of Remaining), Human [9]: 2.99%; fraction unbound at 4 h, 5 μM [10]: 0.218; inhibition at 10 µM [11]: 4 to 46%; IC50 [2, 17]: 0.0722 µM; IC50 [2]: 0.072 ± 0.001 µM; IC50 [3, 18]: 0.017 µM; fraction unbound at 4 h, 5 μM [12]: 0.092; Survival [7, 22]: 100%; Death [7]: 100%; Time of 100% death after administration [7]: 2 days; remaining at 0.5 h, 1 μM [13]: < 5%; IC50 [5, 20]: 0.0609 µM; IC50 [5]: 0.06 ± 0.002 µM; IC50 [6, 21]: 0.616 µM; IC50 [6]: 0.616 µM; Time within which all rats (n = 3) died ([14]; 1 mg/kg IV injection, data not shown): ≤ 10 min; Detection in plasma after PO injection ([14]; 30 min after PO injection, 2 mg/kg, data not shown): not detected; MS (% of Remaining), Mice [15]: 0.18%; fraction unbound at 4 h, 5 μM ([16]; mouse, rat, plasma, PPB rate): 0.1 to 0.22
